This is an account of results in US11453647B2, “Benzimidazole derivatives as adenosine receptor antagonists” (Merck Patent GmbH, priority 2017, dated 2022).

As a reminder, the IC50 is the point on the concentration scale where inhibition reaches its midpoint.

Common to all, as to type: cell-based
One test addresses T1, human A1 receptor (Homo sapiens, UniProt P30542).
T1 construct: expressed in transfected cells; host or cells: CHO
T1 sequence (P30542 1-326): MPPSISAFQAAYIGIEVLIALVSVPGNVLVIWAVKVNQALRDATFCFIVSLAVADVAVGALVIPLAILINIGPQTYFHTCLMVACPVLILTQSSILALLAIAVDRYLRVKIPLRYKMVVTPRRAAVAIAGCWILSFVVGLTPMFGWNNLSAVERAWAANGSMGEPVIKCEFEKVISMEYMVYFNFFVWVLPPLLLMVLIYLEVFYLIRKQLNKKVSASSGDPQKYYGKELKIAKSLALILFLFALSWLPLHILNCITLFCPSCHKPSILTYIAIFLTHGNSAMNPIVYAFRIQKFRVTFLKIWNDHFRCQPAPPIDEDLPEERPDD
The experiment in a line: functional cAMP (HTRF) assay, recombinant CHO cells expressing human A1 receptor, forskolin, agonist CPA. The protocol: (§1) The functional activities of human A2A, A2B, A1 and A3 receptors were determined by quantification of cAMP, being the second messenger for adenosine receptors.
(§2) For human A1 and A3 receptors, recombinant CHO cells, expressing either A1 or A3-receptor, were used. As both receptors couple to Gi proteins, the assay protocol was adapted:
(§3) Cells were seeded into 384-well plates, forskolin, test compounds and agonists (CPA for A1- and IB-MECA for A3-receptor) were added. After 30 min incubation, HTRF reagents (cAMP dynamic 2, Cis Bio) were added and the cellular cAMP levels were determined using the ENVISION (Perkin Elmer) plate reader. Obtained raw data were normalized against the inhibitor control and the neural control (DMSO) and the normalized data were fitted using GeneData software.

The target of another test is T2, human A2A receptor (Homo sapiens, UniProt P29274).
T2 construct: expressed in transfected cells; host or cells: HEK293
The experiment in a line: functional cAMP (HTRF) assay, recombinant HEK293 cells expressing human A2A receptor, agonist NECA. For orientation: TR-FRET usually uses a lanthanide donor and a delayed reading to cut background.

For a further test, the target named is T3, A2B receptors (Homo sapiens, UniProt P29275).
T3 sequence (P29275 1-332): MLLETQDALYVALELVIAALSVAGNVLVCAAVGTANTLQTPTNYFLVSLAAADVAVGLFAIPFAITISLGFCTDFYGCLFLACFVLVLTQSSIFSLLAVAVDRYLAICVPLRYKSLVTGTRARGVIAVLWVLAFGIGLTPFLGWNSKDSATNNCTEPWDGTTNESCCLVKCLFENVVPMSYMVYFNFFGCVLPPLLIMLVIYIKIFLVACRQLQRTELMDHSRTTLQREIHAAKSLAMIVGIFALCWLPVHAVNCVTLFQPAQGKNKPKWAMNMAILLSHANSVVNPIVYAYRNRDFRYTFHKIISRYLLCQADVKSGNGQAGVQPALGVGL
The experiment in a line: functional cAMP (HTRF) assay, recombinant HEK293 cells expressing human A2B receptor, agonist NECA. Set-up: expressed in transfected cells; host or cells: HEK293.

A further test concerns the target T4, human A3 receptor (Homo sapiens, UniProt P0DMS8).
T4 construct: expressed in transfected cells; host or cells: CHO
T4 sequence (P0DMS8 1-318): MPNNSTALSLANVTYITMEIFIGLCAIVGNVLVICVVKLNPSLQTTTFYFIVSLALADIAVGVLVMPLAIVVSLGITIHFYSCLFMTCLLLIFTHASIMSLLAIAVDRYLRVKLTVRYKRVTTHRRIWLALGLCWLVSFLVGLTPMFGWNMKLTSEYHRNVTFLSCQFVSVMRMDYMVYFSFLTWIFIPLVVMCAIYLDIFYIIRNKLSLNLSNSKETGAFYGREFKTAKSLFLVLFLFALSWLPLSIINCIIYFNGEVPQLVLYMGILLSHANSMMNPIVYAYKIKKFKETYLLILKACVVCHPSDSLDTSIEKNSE
The experiment in a line: functional cAMP (HTRF) assay, recombinant CHO cells expressing human A3 receptor, forskolin, agonist IB-MECA. Here is the method:
as §1, §2, §3

A value given as a limit tells only on which side of the number the result lay.

T2 sequence (P29274 whole entry): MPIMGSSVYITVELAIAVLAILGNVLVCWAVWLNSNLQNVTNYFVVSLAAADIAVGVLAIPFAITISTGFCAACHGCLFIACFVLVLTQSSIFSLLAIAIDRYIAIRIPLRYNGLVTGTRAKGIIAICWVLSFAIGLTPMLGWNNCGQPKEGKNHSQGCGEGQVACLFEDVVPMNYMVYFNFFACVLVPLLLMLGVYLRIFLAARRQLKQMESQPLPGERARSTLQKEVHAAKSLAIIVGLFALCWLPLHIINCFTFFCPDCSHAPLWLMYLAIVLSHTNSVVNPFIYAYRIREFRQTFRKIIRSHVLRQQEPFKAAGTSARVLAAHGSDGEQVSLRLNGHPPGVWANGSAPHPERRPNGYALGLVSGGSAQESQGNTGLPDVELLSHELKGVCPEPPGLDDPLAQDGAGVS

For the compound `COc1ccc(-c2ccccc2)c2nc(NC(=O)c3ccc(CCl)cc3)[nH]c12` [compound 10, 4-Chloromethyl-N-(7-methoxy-4-phenyl-1H-benzoimidazol-2-yl)-benzamide], the IC50 on human A1 receptor is above 1000 nM; at human A2A receptor it was below 10 nM; at A2B receptors, below 100 nM.
Take `COc1ccc(-c2ccncc2)c2nc(NC(=O)c3ccc(CN(C)C)cc3)[nH]c12` [compound 89, 4-[(dimethylamino)methyl]-N-[7-methoxy-4-(pyridin-4-yl)-1H-1,3-benzodiazol-2-yl]benzamide]: the IC50 at human A3 receptor was above 1000 nM; on human A2A receptor it was below 100 nM; at A2B receptors, below 1000 nM.
Turning to `COc1ccc(C2CCOCC2)c2nc(NC(=O)c3ccnc(N4CCC(C)(O)CC4)c3)[nH]c12` [compound 118, 2-(4-hydroxy-4-methylpiperidin-1-yl)-N-[7-methoxy-4-(oxan-4-yl)-1H-1,3-benzodiazol-2-yl]pyridine-4-carboxamide], the IC50 on human A1 receptor was above 1000 nM; on human A2A receptor it was below 10 nM; at A2B receptors, above 1000 nM.
`COc1ccc(-c2cnn(C)c2)c2nc(NC(=O)c3cncs3)[nH]c12` [compound 219, N-[7-methoxy-4-(1-methyl-1H-pyrazol-4-yl)-1H-1,3-benzodiazol-2-yl]-1,3-thiazole-5-carboxamide]: the IC50 on human A1 receptor is below 1000 nM; at human A2A receptor it was below 10 nM; on A2B receptors it was below 10 nM.
On to `COc1ccc(C2CCOCC2)c2nc(NC(=O)c3cnc(C)s3)[nH]c12` [compound 227, N-[7-methoxy-4-(oxan-4-yl)-1H-1,3-benzodiazol-2-yl]-2-methyl-1,3-thiazole-5-carboxamide], for which the results for the 50% inhibitory concentration (IC50) on human A1 receptor, at human A2A receptor and on A2B receptors were above 1000 nM, below 10 nM and below 100 nM, respectively.
For the compound `COc1ccc(C2CCOCC2)c2nc(NC(=O)NCc3nccs3)[nH]c12` [compound 228, 3-[7-methoxy-4-(oxan-4-yl)-1H-1,3-benzodiazol-2-yl]-1-[(1,3-thiazol-2-yl)methyl]urea], the IC50 at human A1 receptor is above 1000 nM; at human A2A receptor it was below 100 nM.
In the case of `COc1ccc(-c2ccccc2F)c2nc(NC(=O)c3cnn(C)c3)[nH]c12` [compound 243, N-[4-(2-fluorophenyl)-7-methoxy-1H-1,3-benzodiazol-2-yl]-1-methyl-1H-pyrazole-4-carboxamide], the IC50 on human A1 receptor was below 1000 nM; at human A2A receptor it was below 10 nM; at A2B receptors it was below 10 nM.
As for `COc1ccc(C2CCOCC2)c2nc(NC(=O)c3ccc(N4C(=O)CCC4=O)cc3)[nH]c12` [compound 250, 4-(2,5-dioxopyrrolidin-1-yl)-N-[7-methoxy-4-(oxan-4-yl)-1H-1,3-benzodiazol-2-yl]benzamide], the IC50 was above 1000 nM on human A3 receptor, below 10 nM on human A2A receptor and below 100 nM on A2B receptors.
With `COc1ccc(-c2ccccc2)c2nc(NC(=O)c3cncn3C)[nH]c12` [compound 254, N-(7-methoxy-4-phenyl-1H-1,3-benzodiazol-2-yl)-1-methyl-1H-imidazole-5-carboxamide], the IC50 was below 1000 nM at human A1 receptor, below 10 nM on human A2A receptor and below 10 nM at A2B receptors.
As to `COc1cc(F)c(C2CCOCC2)c2nc(NC(=O)c3ccc(C(=O)N(C)C)cc3)[nH]c12` [compound 277, N4-[5-fluoro-7-methoxy-4-(oxan-4-yl)-1H-1,3-benzodiazol-2-yl]-N1,N1-dimethylbenzene-1,4-dicarboxamide], the IC50 is above 1000 nM at human A3 receptor, below 100 nM on human A2A receptor and below 100 nM at A2B receptors.
For the compound `COc1ccc(-c2ccccc2)c2nc(NC(=O)c3cnc4cccnn34)[nH]c12` [compound 288, N-(7-methoxy-4-phenyl-1H-1,3-benzodiazol-2-yl)imidazo[1,2-b]pyridazine-3-carboxamide], the IC50 on human A3 receptor is below 1000 nM; at human A2A receptor, below 100 nM; on A2B receptors it was below 100 nM.
Turning to `CCCNC(=O)c1ccc(C(=O)Nc2nc3c(OC)ccc(-c4ccccc4)c3[nH]2)cc1` [compound 293, N1-(4-methoxy-7-phenyl-1H-1,3-benzodiazol-2-yl)-N4-propylbenzene-1,4-dicarboxamide], the values for the IC50 at human A3 receptor, on human A2A receptor and at A2B receptors were below 1000 nM, below 100 nM and below 100 nM, respectively.
For `COc1ccc(-c2ccccc2)c2[nH]c(NC(=O)c3ccc(C(=O)N4CCN(C)CC4)cc3)nc12` [compound 294, N-(4-methoxy-7-phenyl-1H-1,3-benzodiazol-2-yl)-4-(4-methylpiperazine-1-carbonyl)benzamide], the 50% inhibitory concentration (IC50) is below 1000 nM on human A3 receptor, below 100 nM on human A2A receptor and below 10 nM on A2B receptors.
`COCCN(C)C(=O)c1ccc(C(=O)Nc2nc3c(OC)ccc(-c4ccccc4)c3[nH]2)cc1` [compound 295, N4-(4-methoxy-7-phenyl-1H-1,3-benzodiazol-2-yl)-N1-(2-methoxyethyl)-N1-methylbenzene-1,4-dicarboxamide]: the figures for the half-maximal inhibitory concentration (IC50) on human A3 receptor, at human A2A receptor and on A2B receptors were below 1000 nM, below 100 nM and below 100 nM, respectively.
For the compound `COc1ccc(-c2ccccc2)c2[nH]c(NC(=O)c3ccc(C(=O)N(C)CCN(C)C)cc3)nc12` [compound 296, N1-[2-(dimethylamino)ethyl]-N4-(4-methoxy-7-phenyl-1H-1,3-benzodiazo1-2-yl)-N1-methylbenzene-1,4-dicarboxamide], the IC50 was below 1000 nM on human A3 receptor, below 100 nM at human A2A receptor and below 10 nM at A2B receptors.
For `CCCN(C)C(=O)c1ccc(C(=O)Nc2nc3c(OC)ccc(-c4ccccc4)c3[nH]2)cc1` [compound 297, N4-(4-methoxy-7-phenyl-1H-1,3-benzodiazol-2-yl)-N1-methyl-N1-propylbenzene-1,4-dicarboxamide], in that order: below 1000 nM, below 100 nM and below 100 nM.
As to `COc1ccc(-c2ccccc2)c2[nH]c(NC(=O)c3ccc(C(=O)N4CCOCC4)cc3)nc12` [compound 298, N-(4-methoxy-7-phenyl-1H-1,3-benzodiazol-2-yl)-4-(morpholine-4-carbonyl)benzamide], the half-inhibitory concentration (IC50) was below 1000 nM on human A3 receptor, below 100 nM on human A2A receptor and below 10 nM on A2B receptors.
For `COCCn1cc(C(=O)Nc2nc3c(-c4cccc5cc[nH]c45)ccc(OC)c3[nH]2)cn1` [compound 304, N-[4-(1H-indol-7-yl)-7-methoxy-1H-1,3-benzodiazol-2-yl]-1-(2-methoxyethyl)-1H-pyrazole-4-carboxamide], in that order: below 1000 nM, below 100 nM and below 100 nM.
With `COc1ccc(-c2cccc3cc[nH]c23)c2nc(NC(=O)N3CCC(C)(O)CC3)[nH]c12` [compound 305, 4-hydroxy-N-[4-(1H-indol-7-yl)-7-methoxy-1H-1,3-benzodiazol-2-yl]-4-methylpiperidine-1-carboxamide], the values for the IC50 on human A3 receptor, on human A2A receptor and at A2B receptors were above 1000 nM, below 100 nM and below 100 nM, respectively.
Consider `COc1ccc(-c2ccccc2)c2nc(NC(=O)N3CCC4(CCOCC4)C3)[nH]c12` [compound 310, N-(7-methoxy-4-phenyl-1H-1,3-benzodiazol-2-yl)-8-oxa-2-azaspiro[4.5]decane-2-carboxamide], for which the half-maximal inhibitory concentration (IC50) was above 1000 nM at human A3 receptor, below 100 nM on human A2A receptor and below 100 nM at A2B receptors.
In the case of `COc1ccc(-c2ccccc2)c2nc(NC(=O)c3ccc(CN4CCCC4=O)cc3)[nH]c12` [compound 311, N-(7-methoxy-4-phenyl-1H-1,3-benzodiazol-2-yl)-4-[(2-oxopyrrolidin-1-yl)methyl]benzamide], the IC50 at human A3 receptor was below 1000 nM; at human A2A receptor, below 100 nM; on A2B receptors, below 10 nM.
For `COc1ccc(N2CCCOCC2)c2nc(NC(=O)c3ccc(C(=O)N(C)C)cc3)[nH]c12` [compound 313, N4-[7-methoxy-4-(1,4-oxazepan-4-yl)-1H-1,3-benzodiazol-2-yl]-N1,N1-dimethylbenzene-1,4-dicarboxamide], in that order: above 1000 nM, below 10 nM and above 1000 nM.
